Consider 3 molecules from patent US20190284286A1, “Modulation of Type I Interferons to Reactivate HIV-1 Reservoir and Enhance HIV-1 Treatment” (The University of North Carolina at Chapel Hill, priority 2016, published 2019).

One experiment concerns CD4 T cells. In words: Ex vivo culture of splenocytes from HIV-1 persistently infected humanized mice. Particulars: for number of live CD4 T cells (CD4 T cell depletion) / active caspase-3 / apoptosis of CD4 T cells: 10 days culture, Z-DEVD-FMK 10 μM; for number of live CD4 T cells (CD4 T cell depletion): Ac-YVAD-CMK 50 μM. Type of experiment: cell-based. How it is done:
Mice were sacrificed at 10 wpi. […] At day 10, the cells were counted and used for analysis. (B) HIV-1 RNA levels in culture supernatant. (C-D) Representative dot plots (C) and summarized data (D) show percentages of CD4 T cells with active caspase-3. (E) Number of live CD4 T cells in each group. (F-I) Splenocytes from mock (n=2) or HIV-1 infected (n=4) humanized mice were cultured with IL-2 in vitro in the presence of DMSO or caspase-3 inhibitor Z-DEVD-FMK or caspase-1 inhibitor Ac-YVAD-CMK for 10 days. At day 10, the cells were counted and used for staining. (F-G) Representative dot plots (F) and summarized data (G) show percentages of active caspase-3^+ CD4 T cells. (H-I) Number of live CD4 T cells in each group. Data are one representative of 2 independent experiments with mean values±s.e.m.). *P<0.05, **P<0.01 by unpaired, two-tailed Student's t-test to compare differences between each two groups.
For surface staining, single cell suspensions prepared from peripheral blood, spleen, or mesenteric lymph nodes of humanized mice were stained with surface markers and analyzed on a CyAn ADP flow cytometer (Dako). For intracellular staining, cells were first stained with surface markers, and then fixed and permeabilized with cytofix/cytoperm buffer (BD Bioscience), followed by intracellular staining. PE-conjugated anti-human active caspase-3 (C92-605) was used to detect intracellular activation of caspase-3. Fluorescent labeled inhibitors of caspases-1 probe assay (FLICA 660 Caspase-1 Assay Kit, ImmunoChemistry Technologies) were performed to determine intracellular activation of caspases-1. Data were analyzed using Summit4.3 software (Dako).
Media were half-changed every 2-3 days. At day 10, the cells were counted and used for staining.

In the next experiment the test system is HIV-1. The settings on record: long-term IFN-α during and after ART; cited from earlier work.
The mark [1] stands for this setting: α-IFNAR1 10 μg/ml, IFN-α 200 u/ml.

`COC(=O)CC[C@H](NC(=O)[C@H](CC(=O)OC)NC(=O)OCc1ccccc1)C(=O)N[C@H](C(=O)N[C@@H](CC(=O)OC)C(=O)CF)C(C)C` [Z-DEVD-FMK, reference compound]: in the experiment on CD4 T cells, the “number of live CD4 T cells (CD4 T cell depletion)” value (“number of live CD4 T cells” below) was “rescued CD4 T cell number”. Also, the “active caspase-3 / apoptosis of CD4 T cells” value with CD4 T cells (setting [1]) was “reduced HIV-1 induced CD4 T cell apoptosis”.

For the molecule IFN-α, in the experiment with CD4 T cells (10 days culture with IL-2, α-IFNAR1 10 μg/ml, IFN-α 200 u/ml), the “HIV-1 replication (HIV-1 RNA in culture supernatant)” value was “inhibited HIV-1 replication”. In addition, the “number of live CD4 T cells” value in the experiment with CD4 T cells is “accelerated CD4 T cell depletion”. The “active caspase-3 / apoptosis of CD4 T cells” value in the experiment on CD4 T cells (setting [1]) is “further increased the level of active caspase-3”. In the experiment with HIV-1, the “patients with suppression of HIV-1 rebound” value is roughly 40%.

For the molecule `CC(=O)N[C@@H](Cc1ccc(O)cc1)C(=O)N[C@H](C(=O)N[C@@H](C)C(=O)N[C@@H](CC(=O)O)C(=O)CCl)C(C)C` [Ac-YVAD-CMK, reference compound], in the experiment with CD4 T cells, the “number of live CD4 T cells” value was “did not prevent CD4 T cell depletion”.
